Source: patent US10294202B2, “Pyrrolidinones as herbicides” (FMC Corporation, priority 2013, dated 2019)

Columns and labels:
kochia = test: Test A pre-/postemergence herbicide test; assay type: in vivo, Kochia scoparia; details: for Plant response rating, Kochia: 125 g ai/ha
Excerpt: (§1) Seeds of plant species selected from bamyardgrass (Echinochloa crus-galli), kochia (Kochia scoparia), ragweed (common ragweed, Ambrosia elatior), ryegrass, Italian (Italian ryegrass, Lolium multiflorum), crabgrass, large (large crabgrass Digitaria sanguinalis), giant foxtail (Setaria faberii), morningglory (Ipomoea spp.), pigweed (Amaranthus retroflexus), velvetleaf (Abutilon theophrasti), wheat (Triticum aestivum), and corn (Zea mays) were planted into a blend of loam soil and sand and treated preemergence with a directed soil spray using test chemicals formulated in a non-phytotoxic solvent mixture which included a surfactant. At the same time, plants selected from these crop and weed species and also blackgrass (Alopecurus myosuroides), and galium (catchweed bedstraw, Galium aparine) were planted in pots containing the same blend of loam soil and sand and treated with postemergence applications of test chemicals formulated in the same manner. Plants ranged in height from 2 to 10 cm and were in the one- to two-leaf stage for the postemergence treatment. Treated plants and untreated controls were maintained in a greenhouse for approximately 10 days, after which time all treated plants were compared to untreated controls and visually evaluated for injury. Plant response ratings, summarized in Table A, are based on a 0 to 100 scale where 0 is no effect and 100 is complete control. A dash (-) response means no test result.

giant foxtail = test: Test A pre-/postemergence herbicide test; assay type: in vivo, Setaria faberii
Method in brief: (§2)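 Seeds sown in loam soil/sand blend received a preemergence directed soil spray of test chemical in non-phytotoxic solvent with surfactant; postemergence plants (2–10 cm, one- to two-leaf stage) were sprayed with the same formulation. After about 10 days in greenhouse, injury was rated visually versus untreated controls, 0 (no effect) to 100 (complete control).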

ragweed = test: Test A pre-/postemergence herbicide test; assay type: in vivo, Ambrosia elatior; details: for Plant response rating, Ragweed: 125 g ai/ha
Excerpt: as §1

pigweed = test: Test A pre-/postemergence herbicide test; assay type: in vivo, Amaranthus retroflexus; details: for Plant response rating, Pigweed: 125 g ai/ha
Method in brief: as §2

ryegrass, Italian = test: Test A pre-/postemergence herbicide test; assay type: in vivo, Lolium multiflorum; details: for Plant response rating, Ryegrass, Italian: 125 g ai/ha
Method in brief: as §2

corn = test: Test A pre-/postemergence herbicide test; assay type: in vivo, Zea mays; details: Postemergence
Method in brief: as §2

blackgrass = test: Test A postemergence herbicide test; assay type: in vivo, Alopecurus myosuroides
Excerpt: (§3) At the same time, plants selected from these crop and weed species and also blackgrass (Alopecurus myosuroides), and galium (catchweed bedstraw, Galium aparine) were planted in pots containing the same blend of loam soil and sand and treated with postemergence applications of test chemicals formulated in the same manner. Plants ranged in height from 2 to 10 cm and were in the one- to two-leaf stage for the postemergence treatment. Treated plants and untreated controls were maintained in a greenhouse for approximately 10 days, after which time all treated plants were compared to untreated controls and visually evaluated for injury. Plant response ratings, summarized in Table A, are based on a 0 to 100 scale where 0 is no effect and 100 is complete control. A dash (-) response means no test result.

barnyardgrass = test: Test A pre-/postemergence herbicide test; assay type: in vivo, Echinochloa crus-galli
Method in brief: as §2

galium = test: Test A postemergence herbicide test; assay type: in vivo, Galium aparine; details: 125 g ai/ha, visual rating on 0 to 100 scale (0 no effect, 100 complete control), approx. 10 days
Excerpt: as §3

wheat = test: Test A pre-/postemergence herbicide test; assay type: in vivo, Triticum aestivum; details: Postemergence, 125 g ai/ha; visual rating on 0 to 100 scale (0 no effect, 100 complete control), approx. 10 days
Method in brief: as §2

[1] = Postemergence, visual rating on 0 to 100 scale (0 no effect, 100 complete control), approx. 10 days
[2] = Preemergence, 0 to 100 scale where 0 is no effect and 100 is complete control
[3] = Preemergence, 500 g ai/ha, visual rating on 0 to 100 scale (0 no effect, 100 complete control)
[4] = Postemergence, 125 g ai/ha, visual rating on 0 to 100 scale (0 no effect, 100 complete control), approx. 10 days
[5] = Postemergence, 500 g ai/ha, 0 to 100 scale (0 no effect, 100 complete control)
[6] = Preemergence, 125 g ai/ha, 0 to 100 scale where 0 is no effect and 100 is complete control
[7] = 125 g ai/ha, visual rating on 0 to 100 scale (0 no effect, 100 complete control), approx. 10 days
[8] = 500 g ai/ha, 0 to 100 scale (0 no effect, 100 complete control)

**Q.** Which results are given for `CC(C)(C)c1cccc(C2CNC(=O)C2C(=O)Nc2ccccc2F)c1` (centres unmarked) [Compound 347]?
**A.** Plant response rating, Kochia (kochia; [1]): 0; Plant response rating, Kochia (kochia; [2]): 0; Kochia plant response rating (kochia; [3]): 0; Plant response rating, Foxtail, Giant (giant foxtail; [4]): 20; Plant response rating, Foxtail, Giant (giant foxtail; [5]): 20; Plant response rating, Foxtail, Giant (giant foxtail; [6]): 20; Foxtail, Giant plant response rating (giant foxtail; [3]): 40; Plant response rating, Ragweed (ragweed; [1]): 0; Plant response rating, Ragweed (ragweed; [2]): 0; Ragweed plant response rating (ragweed; [3]): 0; Plant response rating, Pigweed (pigweed; [1]): 0; Plant response rating, Pigweed (pigweed; [2]): 0; Pigweed plant response rating (pigweed; [3]): 0; Plant response rating, Ryegrass, Italian (ryegrass, Italian; [1]): 0; Plant response rating, Ryegrass, Italian (ryegrass, Italian; [2]): 0; Ryegrass, Italian plant response rating (ryegrass, Italian; [3]): 0; Plant response rating, Corn (corn; [7]): 0; Plant response rating, Corn (corn; [8]): 0; Plant response rating, Blackgrass (blackgrass; [7]): 0; Plant response rating, Blackgrass (blackgrass; [8]): 0; Plant response rating, Barnyardgrass (barnyardgrass; [4]): 50; Plant response rating, Barnyardgrass (barnyardgrass; [5]): 50; Plant response rating, Barnyardgrass (barnyardgrass; [6]): 50; Barnyardgrass plant response rating (barnyardgrass; [3]): 90; Plant response rating, Galium (galium): 0; Plant response rating, Wheat (wheat): 0
